Reference: patent US8937052B2, “Therapeutic protocols using hyaluronan” (Alchemia Oncology Pty Limited, priority 2005, dated 2015)
Where a name gives a salt, the structure may show the parent alone.

Experiments:
[1] = target: T1, tumour cell endogenous beta-glucuronidase (Homo sapiens, UniProt P08236); assay: Endogenous beta-glucuronidase activity in tumour cell lysates incubated overnight with HA, compared to samples not containing hyaluronan; assay type: biochemical; conditions: modelled from ≧2 μg of HA per μg tumour cell protein and 0.135 ng protein/cell
T1 construct: Activity of Endogenous Beta-Glucuronidase in Tumor Cells In Vitro; endogenous in cells; host or cells: HCT-116, LIM-1215, LIM-2099, SK-CO1, SW-1222, HT-29, SW-620, MSTO-211H, MDA-MB-468, MDA-MB-435 lysates
T1 sequence (P08236 23-651): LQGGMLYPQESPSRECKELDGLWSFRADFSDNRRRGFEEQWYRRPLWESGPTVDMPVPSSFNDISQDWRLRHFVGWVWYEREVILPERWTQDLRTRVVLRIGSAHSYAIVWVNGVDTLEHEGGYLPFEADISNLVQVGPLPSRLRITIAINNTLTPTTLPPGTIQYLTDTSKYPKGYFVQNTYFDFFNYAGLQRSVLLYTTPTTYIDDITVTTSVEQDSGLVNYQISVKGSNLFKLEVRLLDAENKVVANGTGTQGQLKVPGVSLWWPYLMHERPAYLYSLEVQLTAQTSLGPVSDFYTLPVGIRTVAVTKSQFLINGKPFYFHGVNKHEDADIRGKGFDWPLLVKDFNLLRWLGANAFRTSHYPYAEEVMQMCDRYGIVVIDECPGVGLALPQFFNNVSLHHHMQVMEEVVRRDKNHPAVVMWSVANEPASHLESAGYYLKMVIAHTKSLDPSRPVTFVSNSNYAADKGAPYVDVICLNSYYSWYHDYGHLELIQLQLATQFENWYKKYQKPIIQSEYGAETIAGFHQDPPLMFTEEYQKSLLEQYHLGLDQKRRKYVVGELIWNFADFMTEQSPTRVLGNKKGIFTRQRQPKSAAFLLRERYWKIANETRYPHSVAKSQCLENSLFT
Experimental: Stocks of the tumor cell lysates (0.8 mg protein/ml) were prepared from the original cell lysates. The hyaluronan stock of 10 mg/ml (10 kDa & 860 kDa) was diluted with potassium phosphate buffer to achieve 8 mg/ml, 3.2 mg/ml, 1.6 mg/ml, 0.4 mg/ml, 0.2 mg/ml, 0.04 mg/ml, 0.02 mg/ml and 0.0008 mg/ml of hyaluronan. The 25 mg/ml of <2 kDa HA was diluted further with potassium phosphate buffer to achieve 8 mg/ml, 3.2 mg/ml, 1.6 mg/ml, 0.4 mg/ml, 0.2 mg/ml, 0.04 mg/ml, 0.02 mg/ml and 0.0008 mg/ml of hyaluronan. The assay samples were prepared by aliquoting 125 μl of the different dilutions of hyaluronan to an Eppendorf tube containing 125 μl of 0.8 mg protein/ml cell lysates of the following cell lines; HCT-116, LIM-1215, LIM-2099, SK-CO1, SW-1222, HT-29, SW-620, MSTO-211H, MDA-MB-468 and MDA-MB-435. […] On completion of the incubation, the samples were thoroughly mixed by repeated invert mixing (˜20 times) after which the beta-glucuronidase was quantified using the 96-well-plate method.
The assay was performed in the wells of a black clear-bottom 96-well-plate where 50 μL of the tumour cell lysates (20 μg protein) were added to the wells and 50 μL of 75 mM of potassium phosphate buffer was used as the control blanking well. […] On completion of the incubation, 50 μL of stop buffer was added and the plate was read at 350 nm excitation and 450 nm emission on a Fluostar Optima plate reader.

Carboxylesterase = Carboxylesterase activity in tissue homogenates of the liver and the GI-tract; assay type: biochemical
Source text: Carboxylesterase • 2. beta-glucuronidase
Tissue homogenates of the liver and the GI-tract were used as the source of each enzyme. […] In addition to this mechanism, inhibition of beta-glucuronidase in the lumen of the GI tract would prevent the generation of SN-38 from SN-38G.

[2] = in vivo
Source text: HA. […] All body organs and fluids were removed, weighed and [^3H] radioactivity quanitated using β-scintillation counting.

[3] = In situ perfusion: survival until experimental end-point; assay type: in vivo, Wistar rats; conditions: irinotecan 60 mg/kg single i.v.
[4] = irinotecan 60 mg/kg i.v. (HyCAMP 26.6/60); 90 minute time point
[5] = irinotecan 30 mg/kg i.v. (HyCAMP 26.6/30); 120 min
[6] = irinotecan 30 mg/kg i.v.

Compound	HA per cell resulting in stimulation of endogenous beta-glucuronidase activity [1] [pg HA/cell]	effect on carboxylesterase activity (Carboxylesterase)	HA per tumour cell [2]	HA that would accumulate per gram of tumour [2]	survival until experimental end-point [3]	cumulative biliary excretion of CPT-11 [4] [µg]	cumulative intestinal exsorption of CPT-11 [5] [µg]	quantities of SN-38 found in the spleen and lung [6]
hyaluronan [HA]	≥ 270	did not affect the activity of carboxylesterase	51.6 pg of HA/cell	approximately 51.6 mg	–	–	–	–
CCc1c2c(nc3ccc(OC(=O)N4CCC(N5CCCCC5)CC4)cc13)-c1cc3c(c(=O)n1C2)COC(=O)[C@]3(O)CC [CPT-11, Irinotecan hydrochloride]	–	–	–	–	only one rat survived	1388	525	could not be detected
